Measurements from paper PMC6979384, “Characterization of the plant homeodomain (PHD) reader family for their histone tail interactions” (Epigenetics & Chromatin, 2020).

Key:
Assay in all cases: Histone peptide microarray
Type in all cases: binding, human
Details in all cases: sheet "Array Heatmap"; GST-tagged reader; histone peptide array, total n = 4
[1] = system: KDM5A (3)
Method in brief: (§1)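 Mean ± SD of 4 replicate array intensities; GST-PHD finger at 0.5 μM against 293 PTM-bearing histone peptides.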

[2] = system: KDM5B (1)
Method in brief: as §1

[3] = system: KDM5A (1)
Method in brief: as §1

[4] = system: KDM7A
Method in brief: as §1

[5] = system: ING3
Method in brief: as §1

[6] = system: BAZ2B
Method in brief: as §1

[7] = system: PHF8
Method in brief: as §1

[8] = system: PHRF1 (RP)
Method in brief: as §1

[9] = system: ING1
Method in brief: as §1

[10] = system: SP140L
Method in brief: as §1

[11] = system: TAF3
Method in brief: as §1

[12] = system: ING4
Method in brief: as §1

[13] = system: PHF13
Method in brief: as §1

[14] = system: PHF21A
Method in brief: as §1

[15] = system: AIRE (PP)
Method in brief: as §1

[16] = system: CHD5 (PCC)
Method in brief: as §1

[17] = system: ING2
Method in brief: as §1

[18] = system: ING5
Method in brief: as §1

[19] = system: DIDO1
Method in brief: as §1

[20] = system: KDM5B (3)
Method in brief: as §1

[21] = system: KDM4C (TTP)
Method in brief: as §1

[22] = system: TRIM66 (PB)
Method in brief: as §1

[23] = system: DPF2 (PPC2W2)
Method in brief: as §1

[24] = system: MORC3 (CW)
Method in brief: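 GST-tagged PHD finger readers were expressed, purified and applied at 0.5 μM to a microarray of 293 synthetic histone peptides carrying single or combinatorial PTMs, using an optimized protocol. Binding signals are averages with standard deviation from 4 replicates.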

[25] = system: CHD4 (PPCC)
Method in brief: as §1

[26] = system: BPTF (PB)
Method in brief: as §1

[27] = system: CHD5 (PPCC)
Method in brief: as §1

[28] = system: PHF2
Method in brief: as §1

[29] = system: MLL5
Method in brief: as §1

[30] = system: PHF23
Method in brief: as §1

[31] = system: RAG2
Method in brief: as §1

H3R8me1: H3 1-20 [Peptide H3R8me1]
Array Heatmap signal, KDM5A (3) [1]: 0.5111 | Array Heatmap signal, KDM5B (1) [2]: 0.6779 | Array Heatmap signal, KDM5A (1) [3]: 0.4661 | Array Heatmap signal, KDM7A [4]: 0.3359 | Array Heatmap signal, ING3 [5]: 0.4554 | Array Heatmap signal, BAZ2B [6]: 0.4447 | Array Heatmap signal, PHF8 [7]: 0.3354 | Array Heatmap signal, PHRF1 (RP) [8]: 0.6379 | Array Heatmap signal, ING1 [9]: 0.4918 | Array Heatmap signal, SP140L [10]: 0.3587 | Array Heatmap signal, TAF3 [11]: 0.2594 | Array Heatmap signal, ING4 [12]: 0.4481 | Array Heatmap signal, PHF13 [13]: 0.597 | Array Heatmap signal, PHF21A [14]: 0.4425 | Array Heatmap signal, AIRE (PP) [15]: 0.5084 | Array Heatmap signal, CHD5 (PCC) [16]: 0.7411 | Array Heatmap signal, ING2 [17]: 0.6007 | Array Heatmap signal, ING5 [18]: 0.3558 | Array Heatmap signal, DIDO1 [19]: 0.6306 | Array Heatmap signal, KDM5B (3) [20]: 0.4843 | Array Heatmap signal, KDM4C (TTP) [21]: 0.4945 | Array Heatmap signal, TRIM66 (PB) [22]: 0.5513 | Array Heatmap signal, DPF2 (PPC2W2) [23]: 0.6736 | Array Heatmap signal, MORC3 (CW) [24]: 0.4492 | Array Heatmap signal, CHD4 (PPCC) [25]: 0.56 | Array Heatmap signal, BPTF (PB) [26]: 0.34 | Array Heatmap signal, CHD5 (PPCC) [27]: 0.5449 | Array Heatmap signal, PHF2 [28]: 0.4833 | Array Heatmap signal, MLL5 [29]: 0.5181 | Array Heatmap signal, PHF23 [30]: 0.5397 | Array Heatmap signal, RAG2 [31]: 0.2447

H3R8me2a + K9me3: H3 1-20
Array Heatmap signal, KDM5A (3) [1]: 0.5315 | Array Heatmap signal, KDM5B (1) [2]: 0.64 | Array Heatmap signal, KDM5A (1) [3]: 0.4583 | Array Heatmap signal, KDM7A [4]: 0.3302 | Array Heatmap signal, ING3 [5]: 0.4657 | Array Heatmap signal, BAZ2B [6]: 0.4376 | Array Heatmap signal, PHF8 [7]: 0.3554 | Array Heatmap signal, PHRF1 (RP) [8]: 0.6376 | Array Heatmap signal, ING1 [9]: 0.57 | Array Heatmap signal, SP140L [10]: 0.3611 | Array Heatmap signal, TAF3 [11]: 0.2595 | Array Heatmap signal, ING4 [12]: 0.4504 | Array Heatmap signal, PHF13 [13]: 0.5734 | Array Heatmap signal, PHF21A [14]: 0.4463 | Array Heatmap signal, AIRE (PP) [15]: 0.4401 | Array Heatmap signal, CHD5 (PCC) [16]: 0.7117 | Array Heatmap signal, ING2 [17]: 0.595 | Array Heatmap signal, ING5 [18]: 0.3474 | Array Heatmap signal, DIDO1 [19]: 0.7155 | Array Heatmap signal, KDM5B (3) [20]: 0.5093 | Array Heatmap signal, KDM4C (TTP) [21]: 0.4618 | Array Heatmap signal, TRIM66 (PB) [22]: 0.5712 | Array Heatmap signal, DPF2 (PPC2W2) [23]: 0.714 | Array Heatmap signal, MORC3 (CW) [24]: 0.4005 | Array Heatmap signal, CHD4 (PPCC) [25]: 0.5686 | Array Heatmap signal, BPTF (PB) [26]: 0.3424 | Array Heatmap signal, CHD5 (PPCC) [27]: 0.5418 | Array Heatmap signal, PHF2 [28]: 0.5753 | Array Heatmap signal, MLL5 [29]: 0.5407 | Array Heatmap signal, PHF23 [30]: 0.5164 | Array Heatmap signal, RAG2 [31]: 0.2449

H3R8me2a: H3 1-20 [Peptide H3R8me2a]
Array Heatmap signal, KDM5A (3) [1]: 0.6079 | Array Heatmap signal, KDM5B (1) [2]: 0.6786 | Array Heatmap signal, KDM5A (1) [3]: 0.4494 | Array Heatmap signal, KDM7A [4]: 0.3419 | Array Heatmap signal, ING3 [5]: 0.4474 | Array Heatmap signal, BAZ2B [6]: 0.437 | Array Heatmap signal, PHF8 [7]: 0.3345 | Array Heatmap signal, PHRF1 (RP) [8]: 0.6824 | Array Heatmap signal, ING1 [9]: 0.4976 | Array Heatmap signal, SP140L [10]: 0.3504 | Array Heatmap signal, TAF3 [11]: 0.2542 | Array Heatmap signal, ING4 [12]: 0.4314 | Array Heatmap signal, PHF13 [13]: 0.5768 | Array Heatmap signal, PHF21A [14]: 0.4488 | Array Heatmap signal, AIRE (PP) [15]: 0.5572 | Array Heatmap signal, CHD5 (PCC) [16]: 0.7162 | Array Heatmap signal, ING2 [17]: 0.6044 | Array Heatmap signal, ING5 [18]: 0.3481 | Array Heatmap signal, DIDO1 [19]: 0.6465 | Array Heatmap signal, KDM5B (3) [20]: 0.4831 | Array Heatmap signal, KDM4C (TTP) [21]: 0.4962 | Array Heatmap signal, TRIM66 (PB) [22]: 0.5681 | Array Heatmap signal, DPF2 (PPC2W2) [23]: 0.6583 | Array Heatmap signal, MORC3 (CW) [24]: 0.4558 | Array Heatmap signal, CHD4 (PPCC) [25]: 0.5373 | Array Heatmap signal, BPTF (PB) [26]: 0.3288 | Array Heatmap signal, CHD5 (PPCC) [27]: 0.5334 | Array Heatmap signal, PHF2 [28]: 0.4368 | Array Heatmap signal, MLL5 [29]: 0.5074 | Array Heatmap signal, PHF23 [30]: 0.5221 | Array Heatmap signal, RAG2 [31]: 0.2386
